This is an account of results in ChEMBL document CHEMBL4229439, “Design, synthesis and antimycobacterial activity of 3,5-dinitrobenzamide derivatives containing fused ring moieties” (2018).

≈ marks a conversion by molar mass, not a printed value. Calls of active or inactive are those of the source. The calls are words filed in the database; no cut-off is given here.

Test [1] deals with Mycobacterium tuberculosis. Briefly: Antimycobacterial activity against isoniazid/rifampicin-resistant Mycobacterium tuberculosis isolate 16833 after 7 days by Alamar blue assay. It is filed as functional. Conditions: isolate 16833, 168 h.
Test [2] has as its system Mycobacterium tuberculosis. Put plainly: Antimycobacterial activity against isoniazid/rifampicin-resistant Mycobacterium tuberculosis isolate 16995 after 7 days by Alamar blue assay. The format is functional. The settings on record: isolate 16995, 168 h.
The subject of test [3] is Mycobacterium tuberculosis. Briefly: Antimycobacterial activity against isoniazid/rifampicin-resistant Mycobacterium tuberculosis isolate 16995 up to 10 ug/ml after 7 days by Alamar blue assay. The format is functional, organism-based.
The test system of test [4] is Mycobacterium tuberculosis. Briefly: Antimycobacterial activity against isoniazid/rifampicin-resistant Mycobacterium tuberculosis isolate 16833 up to 10 ug/ml after 7 days by Alamar blue assay. It is filed as functional, organism-based.

Consider `NNC(=O)c1ccncc1` [ISONIAZID], for which the MIC in test [1] and in test [2] was > 40 µg/mL in each case.

With `O=C(NCc1ccc2c(c1)CN(Cc1ccc(F)cc1)C2)c1cc([N+](=O)[O-])cc([N+](=O)[O-])c1`, the minimum inhibitory concentration (MIC) came to 0.073 µg/mL (≈ 0.162 µM) in test [1] and 0.115 µg/mL (≈ 0.255 µM) in test [2].

Consider `CO[C@H]1/C=C/O[C@@]2(C)Oc3c(C)c(O)c4c(O)c(c(/C=N/N5CCN(C)CC5)c(O)c4c3C2=O)NC(=O)/C(C)=C\C=C\[C@H](C)[C@H](O)[C@@H](C)[C@@H](O)[C@@H](C)[C@H](OC(C)=O)[C@@H]1C` [RIFAMPIN], for which the minimal inhibitory concentration (MIC) in test [1] and in test [2] was > 40 µg/mL throughout.

For `O=C(NCc1ccc2c(c1)CCN(c1ccc(F)cc1)C2)c1cc([N+](=O)[O-])cc([N+](=O)[O-])c1`, the MIC in test [1] was 0.074 µg/mL (≈ 0.164 µM); in test [2], 0.078 µg/mL (≈ 0.173 µM).

For the compound `O=C(NCc1ccc2c(c1)CCN(c1ccc(C(F)(F)F)cc1)C2)c1cc([N+](=O)[O-])cc([N+](=O)[O-])c1`, the minimum inhibitory concentration (MIC) in test [1] was found to be 0.152 µg/mL (≈ 0.304 µM); in test [2], 0.302 µg/mL (≈ 0.603 µM).

`O=C(NCc1ccc2c(c1)CCN(Cc1ccc(Cl)cc1)C2)c1cc([N+](=O)[O-])cc([N+](=O)[O-])c1`: the minimum inhibitory concentration (MIC) was determined as 0.143 µg/mL (≈ 0.297 µM) in test [1] and 0.077 µg/mL (≈ 0.16 µM) in test [2].

For the compound `O=C(NCc1ccc2c(c1)CCN(Cc1cccc(F)c1)C2)c1cc([N+](=O)[O-])cc([N+](=O)[O-])c1`, the minimal inhibitory concentration (MIC) was 0.074 µg/mL (≈ 0.159 µM) in test [1] and 0.076 µg/mL (≈ 0.164 µM) in test [2].

In the case of `O=C(NCc1ccc2c(c1)CNC2)c1cc([N+](=O)[O-])cc([N+](=O)[O-])c1`, the minimal inhibitory concentration (MIC) in test [1] and in test [2] was > 10 µg/mL each time. The result in test [3] and in test [4] was inactive.

`COc1ccc(CN2Cc3ccc(CNC(=O)c4cc([N+](=O)[O-])cc([N+](=O)[O-])c4)cc3C2)cc1`: the MIC in test [1] was determined as 0.286 µg/mL (≈ 0.618 µM); in test [2] it was 0.606 µg/mL (≈ 1.31 µM).

For `O=C(NCc1ccc2c(c1)CN(Cc1ccc(OC(F)(F)F)cc1)C2)c1cc([N+](=O)[O-])cc([N+](=O)[O-])c1`, the MIC in test [1] is 0.565 µg/mL (≈ 1.09 µM); in test [2], 0.61 µg/mL (≈ 1.18 µM).

`O=C(NCc1ccc2c(c1)CN(c1ccc(F)cc1)C2)c1cc([N+](=O)[O-])cc([N+](=O)[O-])c1`: the MIC in test [1] worked out at 0.066 µg/mL (≈ 0.151 µM); in test [2], 0.147 µg/mL (≈ 0.337 µM).

`O=c1nc(N2CCN(CC3CCCCC3)CC2)sc2c([N+](=O)[O-])cc(C(F)(F)F)cc12` [MACOZINONE]: the MIC in test [1] and in test [2] was < 0.016 µg/mL in each case.

For `O=C(NCc1ccc2c(c1)CN(Cc1ccc(C(F)(F)F)cc1)C2)c1cc([N+](=O)[O-])cc([N+](=O)[O-])c1`, the minimum inhibitory concentration (MIC) in test [1] was determined as 0.278 µg/mL (≈ 0.556 µM); in test [2], 0.308 µg/mL (≈ 0.615 µM).
